Reference: patent publication US20250289813A1, “CDK INHIBITORS, PHARMACEUTICAL COMPOSITIONS, AND THERAPEUTIC APPLICATIONS” (ONQUALITY PHARMACEUTICALS CHINA LTD., priority 2022, published 2025)

Legend:
[1] = target: CDK6/cyclin D1 (Homo sapiens (Human), UniProt Q00534); assay: CDK6 Caliper Mobility Shift assay; assay type: biochemical
Description: (§1) A Caliper Mobility Shift assay was used to determine the inhibitory activities of a compound against CDK4/cyclin D1 and CDK6/cyclin D1 in their respective kinase buffers (CDK4: 20 mM HEPES, pH 7.5, and 0.01% Triton X-100; CDK6: 50 mM HEPES, pH 7.5, and 0.0015% BRIJ-35). The CDK4/cyclin D1 and CDK6/cyclin D1 were obtained from PROQINASE and CARNA, respectively. A FAM-labeled peptide was obtained from GL.
(§2) The compound at predetermined concentrations was pre-incubated with CDK4/cyclin D1 or CDK6/cyclin D1 in a 384-well microplate at room temperature for 10 min. The FAM-labeled peptide and ATP were subsequently added to initiate the kinase reactions. The final enzyme concentrations were 15 nM for CDK4 and 7.5 nM for CDK6. The final ATP concentrations were […] for CDK4 and […] for CDK6. The microplate was allowed to incubate at 28° C. The kinase reactions were stopped by adding a stop buffer (100 mM HEPES, pH 7.5, 0.012% BRIJ-35, 0.2% Coating Reagent 3 (Caliper Life Sciences), and […]). Conversion data were recorded and utilized to calculate the percent inhibition values for each compound and an IC50 value was then determined. The results are summarized in Table 1, where the symbol “***” represents a value no greater than 200 nM, the symbol “**” represents a value greater than 200 nM but no greater than 500 nM, and the symbol “*” represents a value greater than 500 nM.

[2] = tested on: MCF-7 human breast cancer cells; assay: CELLTITER-GLO luminescent cell viability assay; assay type: cell-based; conditions: MCF7, 192 h, MCF-7 cells, 8 days, read-out: EC50 (Effect on Cell Viability)
Description: A CELLTITER-GLO luminescent cell viability assay was carried out using MCF-7 human breast cancer cells under the normal growth condition. The MCF-7 human breast cancer cells were grown at 37° C. in a 5% CO2 humidified incubator in EMEM, supplemented 10% FBS, 0.01 mg/mL bovine insulin. The cells were seeded at a 3,000 cells/well in a 96-well tissue culture plate. The cells were allowed to adhere overnight in the incubator. A compound (5 μL) in a medium at a predetermined concentration. After the cells was incubated at 37° C. for 8 days, a CELLTITER-GLO detection solution (100 μL) was added. The cells were mixed on an orbital shaker for 5 min and then incubated for additional 10 min. The plate was read with an ENVISION reader. The results are summarized in Table 2, where the symbol “+++” represents a value no greater than 1 μM, the symbol “++” represents a value greater than 1 μM but no greater than 10 μM, and the symbol “+” represents a value greater than 10 μM.

[3] = target: CDK4/cyclin D1 (Homo sapiens (Human), UniProt P11802); assay: CDK4 Caliper Mobility Shift assay; assay type: biochemical
Chain of CDK4/cyclin D1 (P11802 whole entry): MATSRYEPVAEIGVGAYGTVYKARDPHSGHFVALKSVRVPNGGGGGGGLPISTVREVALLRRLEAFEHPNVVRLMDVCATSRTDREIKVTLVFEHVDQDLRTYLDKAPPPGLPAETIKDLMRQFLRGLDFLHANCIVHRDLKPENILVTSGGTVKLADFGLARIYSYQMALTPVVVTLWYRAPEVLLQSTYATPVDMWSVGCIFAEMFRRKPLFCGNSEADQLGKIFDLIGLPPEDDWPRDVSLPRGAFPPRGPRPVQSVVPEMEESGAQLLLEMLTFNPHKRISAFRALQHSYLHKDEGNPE
Chain of CDK4/cyclin D1 (P24385 whole entry partner): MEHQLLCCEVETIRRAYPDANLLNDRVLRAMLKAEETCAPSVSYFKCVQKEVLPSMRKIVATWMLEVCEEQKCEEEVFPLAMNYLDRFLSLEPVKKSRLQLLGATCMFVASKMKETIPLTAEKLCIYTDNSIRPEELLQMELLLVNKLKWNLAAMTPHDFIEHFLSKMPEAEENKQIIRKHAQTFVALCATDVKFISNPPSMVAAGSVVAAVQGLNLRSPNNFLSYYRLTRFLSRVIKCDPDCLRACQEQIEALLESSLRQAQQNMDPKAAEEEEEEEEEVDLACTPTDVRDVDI
Description: as §1, §2

Chain of CDK6/cyclin D1 (Q00534 whole entry): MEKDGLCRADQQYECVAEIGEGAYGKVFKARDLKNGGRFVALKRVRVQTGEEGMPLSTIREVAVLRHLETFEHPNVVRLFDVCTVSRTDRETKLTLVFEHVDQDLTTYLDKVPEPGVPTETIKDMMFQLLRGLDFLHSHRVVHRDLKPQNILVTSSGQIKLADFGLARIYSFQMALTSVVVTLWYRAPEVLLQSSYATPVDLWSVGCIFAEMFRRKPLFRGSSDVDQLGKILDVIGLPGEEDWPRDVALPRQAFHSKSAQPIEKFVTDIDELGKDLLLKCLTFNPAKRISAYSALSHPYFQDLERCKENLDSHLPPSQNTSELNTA
Chain of CDK6/cyclin D1 (P24385 whole entry partner): as the sequence (P24385 whole entry partner) above

SMILES | IC50 [1] | EC50 [2] | IC50 [3]
CC(=O)c1c(C)c2cnc(Nc3ccc(N4CCN(S(=O)(=O)N5CCCC[C@@H]5CO)CC4)cn3)nc2n(C2CCCC2)c1=O [Compound A7, (R)-6-acetyl-8-cyclopentyl-2-((5-(4-((2-(hydroxymethyl)piperidin-1-yl)sulfonyl)-piperazin-1-yl)pyridin-2-yl)amino)-5-methylpyrido[2,3-d]pyrimidin-7(8H)-one] | ≤ 200 nM | 1000 to 10000 nM | ≤ 200 nM
COCCOC(=O)NS(=O)(=O)N1CCN(c2ccc(Nc3ncc4c(C)c(C(C)=O)c(=O)n(C5CCCC5)c4n3)nc2)CC1 [Compound A8, 2-Methoxyethyl ((4-(6-((6-acetyl-8-cyclopentyl-5-methyl-7-oxo-7,8-dihydropyrido[2,3-d]pyrimidin-2-yl)amino)pyridin-3-yl)piperazin-1-yl)sulfonyl)carbamate] | ≤ 200 nM | > 10000 nM | 200 to 500 nM
CC(=O)OCCOC(=O)NS(=O)(=O)N1CCN(c2ccc(Nc3ncc4c(C)c(C(C)=O)c(=O)n(C5CCCC5)c4n3)nc2)CC1 [Compound A9, 2-((((4-(6-((6-Acetyl-8-cyclopentyl-5-methyl-7-oxo-7,8-dihydropyrido[2,3-d]-pyrimidin-2-yl)amino)pyridin-3-yl)piperazin-1-yl)sulfonyl)carbamoyl)oxy)ethyl acetate] | ≤ 200 nM | 1000 to 10000 nM | ≤ 200 nM
CC(=O)c1c(C)c2cnc(Nc3ccc(N4CCN(S(=O)(=O)NC(=O)OCCNC(=O)[C@@H](N)C(C)C)CC4)cn3)nc2n(C2CCCC2)c1=O [Compound A14, (S)-2-(2-Amino-3-methylbutanamido)ethyl ((4-(6-((6-acetyl-8-cyclopentyl-5-methyl-7-oxo-7,8-dihydropyrido[2,3-d]pyrimidin-2-yl)amino)pyridin-3-yl)piperazin-1-yl)sulfonyl)carbamate] | ≤ 200 nM | > 10000 nM | ≤ 200 nM
CC(=O)c1c(C)c2cnc(Nc3ccc(N4CCN(S(=O)(=O)NC(=O)OCCNC(=O)[C@@H](N)CO)CC4)cn3)nc2n(C2CCCC2)c1=O [Compound A18, (S)-2-(2-Amino-3-hydroxypropanamido)ethyl ((4-(6-((6-acetyl-8-cyclopentyl-5-methyl-7-oxo-7,8-dihydropyrido[2,3-d]pyrimidin-2-yl)amino)pyridin-3-yl)piperazin-1-yl)-sulfonyl)carbamate] | ≤ 200 nM | > 10000 nM | ≤ 200 nM
CSCC[C@H](N)C(=O)NCCOC(=O)NS(=O)(=O)N1CCN(c2ccc(Nc3ncc4c(C)c(C(C)=O)c(=O)n(C5CCCC5)c4n3)nc2)CC1 [Compound A19, (S)-2-(2-Amino-4-(methylthio)butanamido)ethyl ((4-(6-((6-acetyl-8-cyclopentyl-5-methyl-7-oxo-7,8-dihydropyrido[2,3-d]pyrimidin-2-yl)amino)pyridin-3-yl)piperazin-1-yl)-sulfonyl)carbamate] | ≤ 200 nM | > 10000 nM | ≤ 200 nM
CC(=O)c1c(C)c2cnc(Nc3ccc(N4CCN(S(=O)(=O)NC(=O)OC5CCC5)CC4)cn3)nc2n(C2CCCC2)c1=O [Compound A23, Cyclobutyl ((4-(6-((6-acetyl-8-cyclopentyl-5-methyl-7-oxo-7,8-dihydropyrido[2,3-d]pyrimidin-2-yl)amino)pyridin-3-yl)piperazin-1-yl)sulfonyl)carbamate] | ≤ 200 nM | 1000 to 10000 nM | > 500 nM
CC(=O)c1c(C)c2cnc(Nc3ccc(N4CCN(S(=O)(=O)NC(=O)OC5CC5)CC4)cn3)nc2n(C2CCCC2)c1=O [Compound A24, Cyclopropyl ((4-(6-((6-acetyl-8-cyclopentyl-5-methyl-7-oxo-7,8-dihydropyrido[2,3-d]pyrimidin-2-yl)amino)pyridin-3-yl)piperazin-1-yl)sulfonyl)carbamate] | ≤ 200 nM | 1000 to 10000 nM | ≤ 200 nM
